Calls of active or inactive are those of the source. No cut-off for these calls is given here.

Common to all, as to format: functional, cell-based
Assay [1] concerns Cerebral cortex neuron. The assay is described as follows: Neuroprotective activity in Sprague-Dawley rat primary cortical neurons assessed as inhibition of amyloid beta 1 to 42-induced toxicity by measuring cell viability at 0.1 uM by trypan blue exclusion assay.
The test system of assay [2] is Cerebral cortex neuron. Nature of the assay: Neuroprotective activity in Sprague-Dawley rat primary cortical neurons assessed as inhibition of glutamate-induced toxicity by measuring cell viability at 0.01 uM by trypan blue exclusion assay.
Assay [3] relates to Cerebral cortex neuron. Nature of the assay: Neuroprotective activity in Sprague-Dawley rat primary cortical neurons assessed as inhibition of glutamate-induced toxicity by measuring cell viability at 10 uM by trypan blue exclusion assay.
In assay [4] the test system is Cerebral cortex neuron. Nature of the assay: Neuroprotective activity in Sprague-Dawley rat primary cortical neurons assessed as inhibition of amyloid beta 1 to 42-induced toxicity by measuring cell viability at 100 uM by trypan blue exclusion assay.

Consider `CN1CCC[C@H]1c1cccnc1`, for which the outcome in the assay with Cerebral cortex neuron [1] was Active. As to `CN1CCC[C@H]1c1ccc[n+]([O-])c1`, the result with Cerebral cortex neuron [2] was Active. Turning to `CC12CC3CC(C)(C1)CC(N)(C3)C2`, the result in the assay with Cerebral cortex neuron [3] was Active. With `C[N+]1=CCC[C@H]1c1cccnc1`, in the assay with Cerebral cortex neuron [4], the result was Active. Turning to `CN1C(=O)CC[C@H]1c1cccnc1`, in the assay with Cerebral cortex neuron [1], the outcome was Active. Take `O=C1CCC(c2cccnc2)N1` (stereo unspecified): in the assay with Cerebral cortex neuron [4], the outcome was Active.

Values taken from ChEMBL document CHEMBL3124939, “Evaluation of nicotine and cotinine analogs as potential neuroprotective agents for Alzheimer's disease” (2014).
